Results: the supplement of paper PMC4862054

What was measured:
Assay in all cases: normalised viability (% of control), CellTiter-Blue; higher = more viable cells (about 100 = DMSO control)
BT-549 = conditions: 100 nM; incubation time: 72 h
Experimental: (§1)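 DSRT, CellTiter-Blue viability, 72 h incubation. Signal is normalised to DMSO and benzethonium chloride controls. Value is the normalised response at dose 3.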

CAL-85-1 = conditions: 10 nM; incubation time: 72 h
Experimental: as §1

Hs578T [1] = conditions: 100 nM; incubation time: 72 h
Experimental: as §1

MFM-223 [2] = conditions: 100 nM; incubation time: 72 h
Experimental: as §1

DU-4475 [3] = conditions: 10 nM; incubation time: 72 h
Experimental: as §1

HCC1143 = conditions: 100 nM; incubation time: 72 h
Experimental: as §1

MDA-MB-453 [4] = conditions: 10 nM; incubation time: 72 h
Experimental: as §1

CAL-51 [5] = conditions: 10 nM; incubation time: 72 h
Experimental: as §1

HCC1599 = conditions: 100 nM; incubation time: 72 h
Experimental: as §1

MDA-MB-231 = conditions: 100 nM; incubation time: 72 h
Experimental: as §1

HDQ-P1 [6] = conditions: 10 nM; incubation time: 72 h
Experimental: as §1

MDA-MB-468 [7] = conditions: 100 nM; incubation time: 72 h
Experimental: as §1

CAL-120 [8] = conditions: 100 nM; incubation time: 72 h
Experimental: as §1

BT-474 [9] = conditions: 100 nM; incubation time: 72 h
Experimental: as §1

MDA-MB-436 = conditions: 100 nM; incubation time: 72 h
Experimental: as §1

CAL-148 [10] = conditions: 10 nM; incubation time: 72 h
Experimental: as §1

SK-BR-3 [11] = conditions: 100 nM; incubation time: 72 h
Experimental: as §1

HCC1937 [12] = conditions: 100 nM; incubation time: 72 h
Experimental: as §1

Hs578T [13] = conditions: incubation time: 72 h
Outline: (§2)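 Normalised viability is given for a single listed concentration of the series. In 384-well plates, breast cancer cell lines were incubated 72 h with compound, then read with CellTiter-Blue (2 h, 37 °C) at 560/590 nm. Per-plate scaling set vehicle to 100 and a positive kill control to 0, with Z'-factor quality control.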

MFM-223 [14] = conditions: incubation time: 72 h
Outline: as §2

DU-4475 [15] = conditions: incubation time: 72 h
Outline: as §2

MDA-MB-453 [16] = conditions: incubation time: 72 h
Outline: as §2

CAL-51 [17] = conditions: incubation time: 72 h
Outline: as §2

HDQ-P1 [18] = conditions: incubation time: 72 h
Outline: as §2

MDA-MB-468 [19] = conditions: incubation time: 72 h
Outline: as §2

CAL-120 [20] = conditions: incubation time: 72 h
Outline: as §2

BT-474 [21] = conditions: incubation time: 72 h
Outline: as §2

CAL-148 [22] = conditions: incubation time: 72 h
Outline: as §2

SK-BR-3 [23] = conditions: incubation time: 72 h
Outline: as §2

HCC1937 [24] = conditions: incubation time: 72 h
Outline: as §2

O=C1CCC(N2C(=O)c3ccccc3C2=O)C(=O)N1 (stereo unspecified) [Thalidomide]
Conditions	normalised viability [%]
BT-474 [9]	109
BT-549	88
CAL-51 [5]	90.7
CAL-85-1	100
CAL-120 [8]	105
CAL-148 [10]	107
DU-4475 [3]	91.3
HCC1143	112
HCC1599	108
HCC1937 [12]	90.2
HDQ-P1 [6]	101
Hs578T [1]	91.9
MDA-MB-231	106
MDA-MB-436	105
MDA-MB-453 [4]	98.3
MDA-MB-468 [7]	98.2
MFM-223 [2]	90.7
SK-BR-3 [11]	111

normalised viability [%]
Conditions	3 nM	10 nM	30 nM	100 nM	1000 nM	10000 nM
BT-474 [21]	–	110	–	–	110	108
CAL-51 [17]	90.8	–	90.7	91.3	–	–
CAL-120 [20]	–	111	–	–	106	96.8
CAL-148 [22]	115	–	116	116	–	–
DU-4475 [15]	98.9	–	99.7	109	–	–
HCC1937 [24]	–	85.8	–	–	73.4	77.9
HDQ-P1 [18]	107	–	101	103	–	–
Hs578T [13]	–	97.8	–	–	108	106
MDA-MB-453 [16]	99	–	99.3	89.7	–	–
MDA-MB-468 [19]	–	97.9	–	–	101	105
MFM-223 [14]	–	103	–	–	96.6	91.4
SK-BR-3 [23]	–	97.9	–	–	112	109

CC1(C)NC(=O)N(c2ccc([N+](=O)[O-])c(C(F)(F)F)c2)C1=O [Nilutamide]
Conditions	normalised viability [%]
BT-474 [9]	119
BT-549	99.6
CAL-51 [5]	101
CAL-85-1	105
CAL-120 [8]	99.4
CAL-148 [10]	95
DU-4475 [3]	100
HCC1143	96.2
HCC1599	95.5
HCC1937 [12]	99.7
HDQ-P1 [6]	149
Hs578T [1]	111
MDA-MB-231	106
MDA-MB-436	96.6
MDA-MB-453 [4]	112
MDA-MB-468 [7]	94.2
MFM-223 [2]	92.4
SK-BR-3 [11]	95.4

normalised viability [%]
Conditions	3 nM	10 nM	30 nM	100 nM	1000 nM	10000 nM
BT-474 [21]	–	122	–	–	128	110
CAL-51 [17]	101	–	96.1	94.6	–	–
CAL-120 [20]	–	95.6	–	–	90.1	116
CAL-148 [22]	95.5	–	100	97	–	–
DU-4475 [15]	88	–	108	90.7	–	–
HCC1937 [24]	–	105	–	–	87.3	94.7
HDQ-P1 [18]	124	–	120	112	–	–
Hs578T [13]	–	108	–	–	139	119
MDA-MB-453 [16]	120	–	87.5	109	–	–
MDA-MB-468 [19]	–	115	–	–	103	103
MFM-223 [14]	–	108	–	–	98.4	85.8
SK-BR-3 [23]	–	100	–	–	104	132

CCC1(c2ccc(N)cc2)CCC(=O)NC1=O (stereo unspecified) [Aminoglutethimide]
Conditions	normalised viability [%]
BT-474 [9]	112
BT-549	73.2
CAL-51 [5]	93.5
CAL-85-1	101
CAL-120 [8]	121
CAL-148 [10]	99.1
DU-4475 [3]	104
HCC1143	113
HCC1599	104
HCC1937 [12]	91.3
HDQ-P1 [6]	93.5
Hs578T [1]	80.6
MDA-MB-231	93.7
MDA-MB-436	90.9
MDA-MB-453 [4]	86.3
MDA-MB-468 [7]	102
MFM-223 [2]	97
SK-BR-3 [11]	105

normalised viability [%]
Conditions	3 nM	10 nM	30 nM	100 nM	1000 nM	10000 nM
BT-474 [21]	–	107	–	–	104	105
CAL-51 [17]	87.2	–	92.6	92.8	–	–
CAL-120 [20]	–	111	–	–	116	108
CAL-148 [22]	108	–	105	106	–	–
DU-4475 [15]	107	–	86.9	85.2	–	–
HCC1937 [24]	–	93.3	–	–	92.9	83.4
HDQ-P1 [18]	84.8	–	99.2	103	–	–
Hs578T [13]	–	95.8	–	–	113	89.8
MDA-MB-453 [16]	94.9	–	93	89.2	–	–
MDA-MB-468 [19]	–	97.3	–	–	103	110
MFM-223 [14]	–	97	–	–	102	97.5
SK-BR-3 [23]	–	99.1	–	–	100	109

CN(C)/N=N/c1[nH]cnc1C(N)=O [Dacarbazine]
Conditions	normalised viability [%]
BT-474 [9]	117
BT-549	99.4
CAL-51 [5]	85.9
CAL-85-1	91.8
CAL-120 [8]	77.9
CAL-148 [10]	96.4
DU-4475 [3]	98.4
HCC1143	89.2
HCC1599	78.8
HCC1937 [12]	106
HDQ-P1 [6]	111
Hs578T [1]	106
MDA-MB-231	93.1
MDA-MB-436	86.8
MDA-MB-453 [4]	99.2
MDA-MB-468 [7]	112
MFM-223 [2]	88.8
SK-BR-3 [11]	86.9

normalised viability [%]
Conditions	3 nM	10 nM	30 nM	100 nM	1000 nM	10000 nM
BT-474 [21]	–	126	–	–	122	119
CAL-51 [17]	92.7	–	88.9	88.9	–	–
CAL-120 [20]	–	88.2	–	–	83.8	79.5
CAL-148 [22]	84.4	–	96	99.2	–	–
DU-4475 [15]	90.4	–	89.6	92.4	–	–
HCC1937 [24]	–	98	–	–	87.3	98.5
HDQ-P1 [18]	107	–	100	110	–	–
Hs578T [13]	–	119	–	–	113	94.8
MDA-MB-453 [16]	103	–	102	102	–	–
MDA-MB-468 [19]	–	104	–	–	104	88.8
MFM-223 [14]	–	90.4	–	–	89.3	104
SK-BR-3 [23]	–	104	–	–	95.3	100
